Experiments:
Experiment in all cases: relative viability (nuclei count vs DMSO), 5 days (fraction); higher = more cells survive
[1] = compound: C1=CC=C(C(=C1)C2=CC=C(C=C2)C3=CSC4=C3C(=C(C(=O)N4)C#N)O)O + Cc1nc(Nc2ncc(C(=O)Nc3c(C)cccc3Cl)s2)cc(N2CCN(CCO)CC2)n1 [Dasatinib] (partner 0.075 µM)
How it was run: (§1)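 Lung cancer cell lines were pin-tool dosed in 1536-well plates on the day after seeding, with either a lone drug or a fixed anchor-drug dose plus five library-drug doses (not always all listed) in √10 steps. Nuclei were counted on 4× images after 5 days. Relative viability is the ratio of treated-well to vehicle-well nuclei counts, with each value a median of duplicate plates.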

[2] = compound: C1=CC=C(C(=C1)C2=CC=C(C=C2)C3=CSC4=C3C(=C(C(=O)N4)C#N)O)O + NC(=O)Nc1cc(-c2cccc(F)c2)sc1C(=O)N[C@H]1CCCNC1 [AZD7762] (partner 0.2 µM)
How it was run: as §1

TGX 221 + AZD7762 = compound: CC1=CN2C(=O)C=C(N=C2C(=C1)C(C)NC3=CC=CC=C3)N4CCOCC4 [TGX 221] + NC(=O)Nc1cc(-c2cccc(F)c2)sc1C(=O)N[C@H]1CCCNC1 [AZD7762] (partner 0.2 µM)
How it was run: as §1

Ricolinostat + Olaparib = compound: O=C(CCCCCCNC(=O)c1cnc(N(c2ccccc2)c2ccccc2)nc1)NO [Ricolinostat] + O=C(c1cc(Cc2n[nH]c(=O)c3ccccc23)ccc1F)N1CCN(C(=O)C2CC2)CC1 [Olaparib] (partner 8 µM)
How it was run: as §1

In the case of EMC-BAC-2, the relative viability ([1]; first compound 0.08 µM) is reported as 0.35, the relative viability ([1]; first compound 0.253 µM) is reported as 0.332 and the relative viability ([1]; first compound 0.8 µM) is reported as 0.306. The relative viability ([1]; first compound 2.53 µM) was 0.283, the relative viability ([1]; first compound 8 µM) was 0.316 and the relative viability ([2]; first compound 0.08 µM) was 1.05. The relative viability ([2]; first compound 0.253 µM) was 1.21, the relative viability ([2]; first compound 0.8 µM) was 1.11 and the relative viability ([2]; first compound 2.53 µM) was 0.981. The relative viability ([2]; first compound 8 µM) was 0.939, the relative viability (TGX 221 + AZD7762; first compound 0.08 µM) was 1.06 and the relative viability (TGX 221 + AZD7762; first compound 0.253 µM) was 1.05. It also gave a relative viability (TGX 221 + AZD7762; first compound 0.8 µM) of 1.13, a relative viability (TGX 221 + AZD7762; first compound 2.53 µM) of 1.07 and a relative viability (TGX 221 + AZD7762; first compound 8 µM) of 0.992. For the same cell line, the relative viability (Ricolinostat + Olaparib; first compound 0.08 µM) was 0.52, the relative viability (Ricolinostat + Olaparib; first compound 0.253 µM) was 0.442 and the relative viability (Ricolinostat + Olaparib; first compound 0.8 µM) was 0.393. For the same cell line, the relative viability (Ricolinostat + Olaparib; first compound 2.53 µM) was 0.347.

EPLC-272H was tested, and the relative viability ([1]; first compound 0.08 µM) was 0.311, the relative viability ([1]; first compound 0.253 µM) was 0.306 and the relative viability ([1]; first compound 0.8 µM) was 0.339. It also gave a relative viability ([1]; first compound 2.53 µM) of 0.407, a relative viability ([1]; first compound 8 µM) of 0.303 and a relative viability ([2]; first compound 0.08 µM) of 0.258. The relative viability ([2]; first compound 0.8 µM) was 0.247, the relative viability ([2]; first compound 2.53 µM) was 0.208 and the relative viability ([2]; first compound 8 µM) was 0.183. For the same cell line, the relative viability (TGX 221 + AZD7762; first compound 0.08 µM) was 0.24, the relative viability (TGX 221 + AZD7762; first compound 0.253 µM) was 0.222 and the relative viability (TGX 221 + AZD7762; first compound 0.8 µM) was 0.161. The relative viability (TGX 221 + AZD7762; first compound 2.53 µM) was 0.171, the relative viability (TGX 221 + AZD7762; first compound 8 µM) was 0.197 and the relative viability (Ricolinostat + Olaparib; first compound 0.08 µM) was 0.866. For the same cell line, the relative viability (Ricolinostat + Olaparib; first compound 0.253 µM) was 0.938, the relative viability (Ricolinostat + Olaparib; first compound 0.8 µM) was 0.612 and the relative viability (Ricolinostat + Olaparib; first compound 2.53 µM) was 0.309.

With H3255 the relative viability ([1]; first compound 0.08 µM) was 0.369, the relative viability ([1]; first compound 0.253 µM) was 0.352 and the relative viability ([1]; first compound 0.8 µM) was 0.255. It also gave a relative viability ([1]; first compound 2.53 µM) of 0.39, a relative viability ([1]; first compound 8 µM) of 0.35 and a relative viability ([2]; first compound 0.08 µM) of 0.898. For the same cell line, the relative viability ([2]; first compound 0.253 µM) was 1.07, the relative viability ([2]; first compound 0.8 µM) was 0.757 and the relative viability ([2]; first compound 2.53 µM) was 0.9. It also gave a relative viability ([2]; first compound 8 µM) of 0.848, a relative viability (TGX 221 + AZD7762; first compound 0.08 µM) of 0.766 and a relative viability (TGX 221 + AZD7762; first compound 0.253 µM) of 0.907. It also gave a relative viability (TGX 221 + AZD7762; first compound 0.8 µM) of 0.932, a relative viability (TGX 221 + AZD7762; first compound 2.53 µM) of 0.822 and a relative viability (TGX 221 + AZD7762; first compound 8 µM) of 0.71. The relative viability (Ricolinostat + Olaparib; first compound 0.08 µM) was 0.543, the relative viability (Ricolinostat + Olaparib; first compound 0.253 µM) was 0.529 and the relative viability (Ricolinostat + Olaparib; first compound 0.8 µM) was 0.525. The relative viability (Ricolinostat + Olaparib; first compound 2.53 µM) was 0.506.

Work on HARA yielded a relative viability ([1]; first compound 0.08 µM) of 0.241, a relative viability ([1]; first compound 0.253 µM) of 0.228 and a relative viability ([1]; first compound 0.8 µM) of 0.346. It also gave a relative viability ([1]; first compound 2.53 µM) of 0.292, a relative viability ([1]; first compound 8 µM) of 0.192 and a relative viability ([2]; first compound 0.08 µM) of 0.286. For the same cell line, the relative viability ([2]; first compound 0.253 µM) was 0.361, the relative viability ([2]; first compound 0.8 µM) was 0.345 and the relative viability ([2]; first compound 2.53 µM) was 0.284. The relative viability ([2]; first compound 8 µM) was 0.304, the relative viability (TGX 221 + AZD7762; first compound 0.08 µM) was 0.464 and the relative viability (TGX 221 + AZD7762; first compound 0.253 µM) was 0.38. The relative viability (TGX 221 + AZD7762; first compound 0.8 µM) was 0.513, the relative viability (TGX 221 + AZD7762; first compound 2.53 µM) was 0.519 and the relative viability (TGX 221 + AZD7762; first compound 8 µM) was 0.274. For the same cell line, the relative viability (Ricolinostat + Olaparib; first compound 0.08 µM) was 0.855, the relative viability (Ricolinostat + Olaparib; first compound 0.253 µM) was 0.889 and the relative viability (Ricolinostat + Olaparib; first compound 0.8 µM) was 0.29. The relative viability (Ricolinostat + Olaparib; first compound 2.53 µM) was 0.482.

HCC-15 showed a relative viability ([1]; first compound 0.08 µM) of 0.522, a relative viability ([1]; first compound 0.253 µM) of 0.627 and a relative viability ([1]; first compound 0.8 µM) of 0.601. The relative viability ([1]; first compound 2.53 µM) was 0.673, the relative viability ([1]; first compound 8 µM) was 0.61 and the relative viability ([2]; first compound 0.08 µM) was 1.4. It also gave a relative viability ([2]; first compound 0.253 µM) of 1.38, a relative viability ([2]; first compound 0.8 µM) of 1.46 and a relative viability ([2]; first compound 2.53 µM) of 1.32. For the same cell line, the relative viability ([2]; first compound 8 µM) was 0.93, the relative viability (TGX 221 + AZD7762; first compound 0.08 µM) was 1.1 and the relative viability (TGX 221 + AZD7762; first compound 0.253 µM) was 1.02. The relative viability (TGX 221 + AZD7762; first compound 0.8 µM) was 0.673, the relative viability (TGX 221 + AZD7762; first compound 2.53 µM) was 1.21 and the relative viability (TGX 221 + AZD7762; first compound 8 µM) was 1.13. The relative viability (Ricolinostat + Olaparib; first compound 0.08 µM) was 0.669, the relative viability (Ricolinostat + Olaparib; first compound 0.253 µM) was 0.57 and the relative viability (Ricolinostat + Olaparib; first compound 0.8 µM) was 0.64. The relative viability (Ricolinostat + Olaparib; first compound 2.53 µM) was 0.59.

With HCC-44 the relative viability ([2]; first compound 0.08 µM) was 1.13, the relative viability ([2]; first compound 0.253 µM) was 1.11 and the relative viability ([2]; first compound 0.8 µM) was 1.01. The relative viability ([2]; first compound 2.53 µM) was 1.01, the relative viability ([2]; first compound 8 µM) was 1.02 and the relative viability (TGX 221 + AZD7762; first compound 0.08 µM) was 0.992. The relative viability (TGX 221 + AZD7762; first compound 0.253 µM) was 1.04, the relative viability (TGX 221 + AZD7762; first compound 0.8 µM) was 1.02 and the relative viability (TGX 221 + AZD7762; first compound 2.53 µM) was 1.1. It also gave a relative viability (TGX 221 + AZD7762; first compound 8 µM) of 1.09, a relative viability (Ricolinostat + Olaparib; first compound 0.08 µM) of 1.04 and a relative viability (Ricolinostat + Olaparib; first compound 0.253 µM) of 0.922. The relative viability (Ricolinostat + Olaparib; first compound 0.8 µM) was 1.06 and the relative viability (Ricolinostat + Olaparib; first compound 2.53 µM) was 1.

HCC-78 was tested, and the relative viability ([1]; first compound 0.08 µM) was 0.354, the relative viability ([1]; first compound 0.253 µM) was 0.388 and the relative viability ([1]; first compound 0.8 µM) was 0.327. It also gave a relative viability ([1]; first compound 2.53 µM) of 0.363, a relative viability ([1]; first compound 8 µM) of 0.239 and a relative viability ([2]; first compound 0.08 µM) of 0.682. The relative viability ([2]; first compound 0.253 µM) was 0.744, the relative viability ([2]; first compound 0.8 µM) was 0.638 and the relative viability ([2]; first compound 2.53 µM) was 0.502. The relative viability ([2]; first compound 8 µM) was 0.551, the relative viability (TGX 221 + AZD7762; first compound 0.08 µM) was 0.483 and the relative viability (TGX 221 + AZD7762; first compound 0.253 µM) was 0.697. For the same cell line, the relative viability (TGX 221 + AZD7762; first compound 0.8 µM) was 0.55, the relative viability (TGX 221 + AZD7762; first compound 2.53 µM) was 0.545 and the relative viability (TGX 221 + AZD7762; first compound 8 µM) was 0.507. For the same cell line, the relative viability (Ricolinostat + Olaparib; first compound 0.253 µM) was 0.788, the relative viability (Ricolinostat + Olaparib; first compound 0.8 µM) was 0.735 and the relative viability (Ricolinostat + Olaparib; first compound 2.53 µM) was 0.448.

HCC-366 gave a relative viability ([1]; first compound 0.08 µM) of 0.505, a relative viability ([1]; first compound 0.253 µM) of 0.844 and a relative viability ([1]; first compound 0.8 µM) of 0.64. For the same cell line, the relative viability ([1]; first compound 2.53 µM) was 0.737, the relative viability ([1]; first compound 8 µM) was 0.353 and the relative viability ([2]; first compound 0.253 µM) was 0.342. The relative viability ([2]; first compound 0.8 µM) was 0.259, the relative viability ([2]; first compound 2.53 µM) was 0.281 and the relative viability ([2]; first compound 8 µM) was 0.273. The relative viability (TGX 221 + AZD7762; first compound 0.08 µM) was 0.325, the relative viability (TGX 221 + AZD7762; first compound 0.253 µM) was 0.202 and the relative viability (TGX 221 + AZD7762; first compound 0.8 µM) was 0.242. For the same cell line, the relative viability (TGX 221 + AZD7762; first compound 2.53 µM) was 0.0941, the relative viability (TGX 221 + AZD7762; first compound 8 µM) was 0.146 and the relative viability (Ricolinostat + Olaparib; first compound 0.08 µM) was 0.272. The relative viability (Ricolinostat + Olaparib; first compound 0.253 µM) was 0.309, the relative viability (Ricolinostat + Olaparib; first compound 0.8 µM) was 0.277 and the relative viability (Ricolinostat + Olaparib; first compound 2.53 µM) was 0.212.

Source: the supplement of paper PMC10307832
